From ChEMBL document CHEMBL1153042, “Fatty acid amide hydrolase inhibitors. Surprising selectivity of chiral azetidine ureas” (Bioorg Med Chem Lett, 2009) come the findings set out here.

Assay [1] has as its target T1, Fatty-acid amide hydrolase 1 (Homo sapiens, UniProt O00519).
T1 sequence (O00519 whole entry): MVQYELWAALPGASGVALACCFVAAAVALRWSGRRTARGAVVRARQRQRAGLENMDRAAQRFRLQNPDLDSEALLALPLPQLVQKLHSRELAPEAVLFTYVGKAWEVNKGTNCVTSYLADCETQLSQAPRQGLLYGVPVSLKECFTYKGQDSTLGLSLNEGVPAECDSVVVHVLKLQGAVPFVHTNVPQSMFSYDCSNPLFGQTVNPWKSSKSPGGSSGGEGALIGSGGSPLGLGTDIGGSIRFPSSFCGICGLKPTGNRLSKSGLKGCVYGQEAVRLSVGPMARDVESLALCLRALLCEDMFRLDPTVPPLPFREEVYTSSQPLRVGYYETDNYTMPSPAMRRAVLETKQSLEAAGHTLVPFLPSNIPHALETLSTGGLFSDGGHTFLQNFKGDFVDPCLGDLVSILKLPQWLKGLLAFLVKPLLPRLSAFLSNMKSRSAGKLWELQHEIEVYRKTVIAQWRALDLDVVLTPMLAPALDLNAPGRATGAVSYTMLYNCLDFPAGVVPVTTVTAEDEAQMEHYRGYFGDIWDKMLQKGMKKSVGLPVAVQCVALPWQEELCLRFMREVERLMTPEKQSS
Description: Inhibition of human FAAH incubated 1 hr prior to addition of arachidonyl-amino-methyl-coumarin amide.

Assay [2] concerns the target T1, Fatty-acid amide hydrolase 1. The assay is described as follows: Inhibition of human FAAH incubated 3 hrs prior to addition of arachidonyl-amino-methyl-coumarin amide.
The target of assay [3] is T2, Fatty-acid amide hydrolase 1 (Rattus norvegicus, UniProt P97612).
T2 sequence (P97612 whole entry): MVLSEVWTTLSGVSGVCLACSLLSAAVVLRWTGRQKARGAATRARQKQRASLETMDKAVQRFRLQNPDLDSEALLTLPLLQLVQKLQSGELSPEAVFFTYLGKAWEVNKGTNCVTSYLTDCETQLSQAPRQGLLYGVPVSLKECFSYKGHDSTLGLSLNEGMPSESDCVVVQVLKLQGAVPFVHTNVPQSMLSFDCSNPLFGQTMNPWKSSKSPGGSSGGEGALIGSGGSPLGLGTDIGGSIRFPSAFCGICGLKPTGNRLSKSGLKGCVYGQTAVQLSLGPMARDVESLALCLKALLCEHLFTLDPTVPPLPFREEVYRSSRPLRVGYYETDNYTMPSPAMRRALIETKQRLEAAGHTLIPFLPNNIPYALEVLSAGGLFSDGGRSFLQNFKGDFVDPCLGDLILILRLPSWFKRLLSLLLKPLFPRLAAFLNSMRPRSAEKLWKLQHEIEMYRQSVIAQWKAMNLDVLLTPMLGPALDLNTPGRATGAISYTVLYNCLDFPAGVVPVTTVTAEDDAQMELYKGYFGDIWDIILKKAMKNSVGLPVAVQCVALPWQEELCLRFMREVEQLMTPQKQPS
Description: Inhibition of rat FAAH incubated 1 hr prior to addition of arachidonyl-amino-methyl-coumarin amide.

Assay [4] has as its target T2, Fatty-acid amide hydrolase 1. The assay is described as follows: Inhibition of rat FAAH incubated 3 hrs prior to addition of arachidonyl-amino-methyl-coumarin amide.
The target of assay [5] is Cannabinoid receptor 1 (Homo sapiens, UniProt P21554). The assay is described as follows: Displacement of [3H]SR141716A from human CB1 receptor. Background: Displacement assays read how much labelled ligand stays bound in the presence of the test substance.
In assay [6] the target is Cannabinoid receptor 2 (Homo sapiens, UniProt P34972). Description: Displacement of [3H]CP-55940 from human CB2 receptor.

SMILES strings stand for the structures.

Cannabinoid receptor 1, sequence (P21554 whole entry): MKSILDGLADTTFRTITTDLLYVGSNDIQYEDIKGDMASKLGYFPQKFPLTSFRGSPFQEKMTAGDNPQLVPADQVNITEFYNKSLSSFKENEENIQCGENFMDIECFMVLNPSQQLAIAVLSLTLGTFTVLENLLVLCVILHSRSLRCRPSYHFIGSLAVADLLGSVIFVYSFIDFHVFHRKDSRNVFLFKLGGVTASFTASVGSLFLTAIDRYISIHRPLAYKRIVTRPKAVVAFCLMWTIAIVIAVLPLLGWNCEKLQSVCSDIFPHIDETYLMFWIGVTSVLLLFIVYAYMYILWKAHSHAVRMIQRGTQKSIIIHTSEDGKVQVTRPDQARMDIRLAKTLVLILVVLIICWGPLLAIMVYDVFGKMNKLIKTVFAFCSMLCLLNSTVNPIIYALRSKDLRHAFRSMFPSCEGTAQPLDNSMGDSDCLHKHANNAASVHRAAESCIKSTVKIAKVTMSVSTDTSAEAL
Cannabinoid receptor 2, sequence (P34972 whole entry): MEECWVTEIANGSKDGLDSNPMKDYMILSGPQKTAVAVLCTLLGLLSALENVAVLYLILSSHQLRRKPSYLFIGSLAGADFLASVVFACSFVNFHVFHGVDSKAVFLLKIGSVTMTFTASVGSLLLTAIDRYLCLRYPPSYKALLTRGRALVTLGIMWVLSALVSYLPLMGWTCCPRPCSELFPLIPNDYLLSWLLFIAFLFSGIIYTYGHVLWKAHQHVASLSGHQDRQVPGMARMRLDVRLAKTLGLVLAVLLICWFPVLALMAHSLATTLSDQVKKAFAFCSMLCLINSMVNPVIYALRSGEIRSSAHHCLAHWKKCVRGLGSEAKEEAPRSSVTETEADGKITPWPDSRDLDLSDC

As usually defined, the IC50 is the concentration that inhibits the measured activity by half. Lower therefore signals inhibition by little substance. Usually Ki stands for the dissociation constant of the complex between target and ligand, obtained from inhibition or displacement. `O=C(N1CCCCC1)N1CC(O[C@@H](c2ccc(Cl)cc2)c2cccnc2Cl)C1`: the IC50 in assay [1] is 140 nM; in assay [2] it was 78 nM; in assay [3], 1030 nM; in assay [4] it was 531 nM. In addition, the Ki amounted to 560 nM in assay [5] and 7.19 µM in assay [6].
On to `O=C(N1CCCCC1)N1CC(O[C@H](c2ccc(Cl)cc2)c2cccnc2Cl)C1`, for which the 50% inhibitory concentration (IC50) in assay [1], in assay [2], in assay [3] and in assay [4] was over 10000 nM in each case. In addition, the Ki was under 10 nM in assay [5] and 10.9 µM in assay [6].
Take `O=C(N1CCCCC1)N1CC(OC(c2ccc(Cl)cc2)c2cccnc2Cl)C1` (racemic): the IC50 came out at 291 nM in assay [1] and 188 nM in assay [2]. Moreover, the inhibition constant Ki in assay [5] was under 10 nM.
